The values below come from patent US5004746A, “Anti-retroviral castanospermine esters” (Merrell Dow Pharmaceuticals Inc., priority 1987, dated 1991).

Test [1] deals with viral protein glycosylation. The following applies: cited from earlier work.
For another test, the system named is influenza infected cells. Conditions: cited from earlier work.
Another test relates to HIV glycoproteins. The following applies: Blough et al. 1986; cited from earlier work.
The next test has as its system HIV-infected cells. The following applies: Blough et al. 1986; cited from earlier work.
A further test concerns HIV. The following applies: Blough et al. 1986; cited from earlier work.
The test system of test [2] is Moloney murine leukemia virus (MoLV). Description: in vitro XC plaque assay (inhibition of growth and replication of murine leukemia virus). Type of test: cell-based. The following applies: SC1, MoLV on mouse SC-1 cells, rat XC cells, compound added 2 hours prior to virus, read-out: IC50 (inhibitory concentration). The procedure: This assay was performed according to the method of Rowe et al. (Virology, 1970, 42, 1136-39) as previously described by L. Hsu, et al. (J. Viroloqical Methods, 1980, 1, 167-77) and T. L. Bowlin and M. R. Proffitt (J. Interferon Res., 1983, 3(1), 19-31). Mouse SC-1 cells (fibroblast) (10^5) were seeded into each well of 6-well cluster plates (Costar #3506) in 4 ml Minimum Essential Medium (MEM) with 10% Fetal Calf Serum (FCS). Following an 18 hour incubation period (37° C.), Moloney murine leukemia virus (MoLV) was applied at a predetermined titer to give optimal (i.e. countable) numbers of virus plaques. Compounds were added 2 hours prior to addition of the virus. Three days later the culture medium was removed, the SC-1 cell monolayers were exposed to UV irradiation (1800 ergs), and rat XC cells […] were seeded into each well in 4 ml MEM. Following an additional 3 day incubation (37° C.), these cells were fixed with ethyl alcohol (95%) and stained with 0.3% crystal violet. Plaques were then counted under low magnification.

SMILES strings stand for the structures. Converted amounts (≈) assume the structure as drawn. Where two headings read alike, the source gives them in different places.

Regarding `OC[C@H]1OC(O)[C@@H](F)[C@@H](O)[C@@H]1O` (stereo partly drawn) [2-deoxy-2-fluoro-D-mannose], the “inhibition of viral protein glycosylation” value in test [1] is “preventing the glycosylation of viral membrane protein”. For the same compound, the “antiviral activity against influenza infected cells” value with influenza infected cells is “exhibit antiviral activity against influenza infected cells”.

With `OC[C@H]1OC(O)[C@H](F)[C@@H](O)[C@@H]1O` (some centres unmarked) [2-deoxy-2-fluoroglucose], the “inhibition of viral protein glycosylation” value in test [1] is on record as “inhibit viral protein glycosylation”.

For `O=CC[C@@H](O)[C@H](O)[C@H](O)CO` [2-deoxy-D-glucose], the “inhibition of expression of HIV glycoproteins” value in the test with HIV glycoproteins is “inhibit expression of HIV glycoproteins”. Moreover, the “inhibition of viral protein glycosylation” value in test [1] (McDowell et al. 1985) is reported as “inhibit viral protein glycosylation”. For the same compound, the “viral multiplication of HIV-infected cells” value in the test on HIV-infected cells was “stopped”. Further, the “block of formation of syncytia” value with HIV is listed as “block the formation of syncytia”.

As for `O=C(O[C@H]1CN2CC[C@H](O)[C@@H]2[C@@H](O)[C@@H]1O)c1ccco1` [R = 2-Furanoyl, R1 = H, R2 = H, 6-(2-Furancarboxylate)], the IC50 in test [2] is 1 µg/mL (≈ 3.53 µM).

As for `CC(=O)O[C@H]1CN2CC[C@H](O)[C@@H]2[C@@H](O)[C@@H]1O` [R = Ac, R1 = H, R2 = H, [1S-(1α,6β,7α,8β,8aβ)]-octahydro-1,6,7,8-indolizinetetrol 6-acetate], the IC50 in test [2] is 10 µg/mL (≈ 43.2 µM).

Regarding `CCCC(=O)O[C@H]1[C@H](O)[C@@H](OC(=O)CCC)CN2CC[C@H](O)[C@H]12` [R = Butanoyl, R1 = H, R2 = Butanoyl, [1S-(1α,6β,7α,8β,8aβ)]-octahydro-1,6,7,8-indolizinetetrol 6,8-dibutanoate], the IC50 in test [2] was found to be 0.5 µg/mL (≈ 1.52 µM).

As for `CCCC(=O)O[C@H]1CN2CC[C@H](O)[C@@H]2[C@@H](O)[C@@H]1O` [R = Butanoyl, R1 = H, R2 = H, [1S(1α,6β,7α,8β,8aβ)]-octahydro-1,6,7,8indolizinetrol 6-butanoate], the IC50 in test [2] was found to be 0.1 µg/mL (≈ 0.386 µM).

Turning to `O=C(O[C@H]1[C@H](O)[C@H]2[C@@H](O)CCN2C[C@@H]1OC(=O)c1ccccc1)c1ccccc1` [R = Bz, R1 = Bz, R2 = H, [1S-(1α,6β,7α,8β,8aβ)]-octahydro-1,6,7,8-indolizinetetrol 6,7-dibenzoate], the IC50 in test [2] is 10 µg/mL (≈ 25.2 µM).

Take `O=C(O[C@H]1CN2CC[C@H](O)[C@@H]2[C@@H](O)[C@@H]1O)c1ccccc1` [R = Bz, R1 = H, R2 = H, [1S-(1α,6β,7α,8β,8aβ)]octahydro-1,6,7,8-indolizinetetrol 6-benzoate]: in test [2], the IC50 turned out to be 0.1 µg/mL (≈ 0.341 µM).

Consider `O=C(O[C@H]1[C@H](O)[C@H]2[C@@H](O)CCN2C[C@@H]1O)c1ccc(Cl)cc1Cl` [R = H, R1 = 2,4-Cl2 -Bz, R2 = H, [1S-(1α,6β,7α,8β,8aβ)]-octahydro-1,6,7,8-indolizinetetrol 7-(2,4-dichlorobenzoate)], for which the IC50 in test [2] was 1 µg/mL (≈ 2.76 µM).

`O=C(O[C@H]1[C@H](O)[C@H]2[C@@H](O)CCN2C[C@@H]1O)c1ccccc1` [R = H, R1 = Bz, R2 = H, [1S-(1α,6β,7α,8β,8aβ)]-octahydro 1,6,7,8-indolizinetetrol 7-benzoate]: the IC50 in test [2] is 1 µg/mL (≈ 3.41 µM).

As to `Cc1ccc(C(=O)O[C@H]2[C@H](O)[C@H]3[C@@H](O)CCN3C[C@@H]2O)cc1` [R = H, R1 = p-CH3 Bz, R2 = H, [1S-(1α,6β,7α,8β,8aβ)]-octahydro-1,6,7,8-indolizinetetrol 7-(4-methylbenzoate)], in test [2], the IC50 stood at 1 µg/mL (≈ 3.25 µM).

With `Cc1ccc(C(=O)O[C@H]2CN3CC[C@H](O)[C@@H]3[C@@H](O)[C@@H]2O)cc1` [R = p-CH3 -Bz, R1 = H, R2 = H, [1S-(1α,6β,7α,8β,8aβ)]-octahydro-1,6,7,8-indolizinetetrol 6-(4-methylbenzoate)], the IC50 in test [2] is 1 µg/mL (≈ 3.25 µM).

As for `COc1ccc(C(=O)O[C@H]2CN3CC[C@H](O)[C@@H]3[C@@H](O)[C@@H]2O)cc1` [R = p-CH3 O-Bz, R1 = H, R2 = H, [1S-(1α,6β,7α,8β,8aβ)]-octahydro-1,6,7,8-indolizinetetrol 6-(4-methoxybenzoate)], in test [2], the IC50 worked out at 10 µg/mL (≈ 30.9 µM).

Turning to `O=C(O[C@H]1CN2CC[C@H](O)[C@@H]2[C@@H](O)[C@@H]1O)c1ccc(F)cc1` [R = p-F-Bz, R1 = H, R2 = H, [1S-(1α,6β,7α,8β,8aβ)]-octahydro-1,6,7,8-indolizinetetrol 6-(4-fluorobenzoate)], in test [2], the IC50 turned out to be 10 µg/mL (≈ 32.1 µM).

In the case of `O=C(O[C@H]1[C@H](O)[C@H]2[C@@H](O)CCN2C[C@@H]1OC(=O)c1ccc(F)cc1)c1ccc(F)cc1` [R = p-F-Bz, R1 = p-F-Bz, R2 = H, [1S-(1α,6β,7α,8β,8aβ)]-octahydro-1,6,7,8-indolizinetetrol 6,7-bis(4-fluorobenzoate)], the IC50 in test [2] was found to be 10 µg/mL (≈ 23.1 µM).

For the compound `CCC(O)[C@H](N)C(=O)O` (stereo partly drawn) [β-hydroxy-norvaline], in the test with HIV glycoproteins, the “inhibition of expression of HIV glycoproteins” value was “inhibit expression of HIV glycoproteins”. Moreover, the “viral multiplication of HIV-infected cells” value in the test on HIV-infected cells is recorded as “stopped”. Further, the “block of formation of syncytia” value in the test on HIV was “block the formation of syncytia”.
